Experimental data published in US10406238B2, “Ligand ionophore conjugates” (PURDUE RESEARCH FOUNDATION, priority 2015, dated 2019).

Assays:
folate receptors = conditions: read-out: binding affinity Kd; cited from earlier work
folate receptor = target: T1, folate receptor (Homo sapiens, UniProt P15328); assay: Binding affinity to folate receptors in KB cells
T1 construct: endogenous in cells; host or cells: KB cells (human; maintained at Purdue Cancer Cell Culture Facility)

FRβ-expressing RAW cells = assay: Endosomal escape in FRβ-expressing RAW cells (confocal); format: cell-based
KB cells [1] = assay: Confocal microscopy for endosomal release in KB cells; format: cell-based, human
KB cells [2] = test system: KB cells
KB cells [3] = assay: cells; conditions: Homo sapiens, read-out: IC50 concentration, growth of KB cells

T1 sequence (P15328 25-234): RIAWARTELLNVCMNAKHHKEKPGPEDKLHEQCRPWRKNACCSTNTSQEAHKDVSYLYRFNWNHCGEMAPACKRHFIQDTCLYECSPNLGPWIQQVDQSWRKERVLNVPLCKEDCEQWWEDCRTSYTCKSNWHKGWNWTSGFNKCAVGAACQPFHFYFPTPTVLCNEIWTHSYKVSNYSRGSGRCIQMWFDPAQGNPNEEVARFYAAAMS

In the case of `Nc1nc2ncc(CNc3ccc(C(=O)N[C@@H](CCC(=O)O)C(=O)O)cc3)nc2c(=O)[nH]1` [Folic acid], the Kd (folate receptors) is listed as 0.0001 µM.
With `CO[C@@H]1C[C@@H](C[C@H]2CC[C@H](C)C([C@@H](C)C(=O)O)O2)O[C@]2(O[C@@](C)(C3CC[C@@](C)([C@@H]4O[C@@H]([C@@H]5O[C@@](O)(COC(=O)NCCSSC[C@H](NC(=O)[C@H](CC(=O)O)NC(=O)[C@H](CC(=O)O)NC(=O)[C@H](CCCNC(=N)N)NC(=O)[C@H](CC(=O)O)NC(=O)CC[C@H](NC(=O)c6ccc(NCc7cnc8nc(N)[nH]c(=O)c8n7)cc6)C(=O)O)C(=O)O)[C@H](C)C[C@@H]5C)C[C@@H]4C)O3)C[C@H]2C)[C@@H]1C` (some centres unmarked) [conjugate 5] the “binding affinity to folate receptors compared to folate-rhodamine compound 2” value (folate receptor) was “three times lower”.
For `CCN(CC)c1ccc2c(-c3ccc(S(=O)(=O)NCCSSC[C@H](CC(=O)O)NC(=O)[C@H](CCCCN)NC(=O)[C@H](CC(=O)O)NC(=O)CC[C@H](NC(=O)c4ccc(NCc5cnc6nc(N)[nH]c(=O)c6n5)cc4)C(=O)O)cc3S(=O)(=O)[O-])c3ccc(=[N+](CC)CC)cc-3oc2c1` [compound 2, reference compound], the “accumulation of dye inside the endosomes” value (FRβ-expressing RAW cells; 10 nM FR, by 2 h, with or without folate-nigericin conjugate 1) was “significant accumulation”.
In the case of `CO[C@@H]1C[C@@H](C[C@H]2CC[C@H](C)C([C@@H](C)C(=O)OCCSSC[C@H](NC(=O)[C@H](CC(=O)O)NC(=O)[C@H](CC(=O)O)NC(=O)[C@H](CCCNC(=N)N)NC(=O)[C@H](CC(=O)O)NC(=O)CC[C@H](NC(=O)c3ccc(NCc4cnc5nc(N)[nH]c(=O)c5n4)cc3)C(=O)O)C(=O)O)O2)O[C@]2(O[C@@](C)(C3CC[C@@](C)([C@@H]4O[C@@H]([C@@H]5O[C@@](O)(CO)[C@H](C)C[C@@H]5C)C[C@@H]4C)O3)C[C@H]2C)[C@@H]1C` (some centres unmarked) [conjugate 1], the “effective concentration for co-incubation” value (KB cells [1]) is reported as 200 nM, the “endosomal release of the rhodamine dye” value (KB cells [1]) is reported as “lower” and the “release of rhodamine dye from the endosome” value (KB cells [1]) is reported as “considerable release”. For the same compound, the “time of high release of rhodamine dye from endosomes” value (KB cells [1]) was 1 to 3 h, the “binding affinity to folate receptors compared to folate-rhodamine compound 2” value (folate receptor) was 5 times lower and the “endosome size versus cells not treated with conjugate” value (FRβ-expressing RAW cells; 100 nM FN with 10 nM FR, FIG. 9) was “somewhat larger”.
With `CO[C@@H]1C[C@@H](C[C@H]2CC[C@H](C)[C@H]([C@@H](C)C(=O)O)O2)O[C@]2(O[C@](C)([C@H]3CC[C@@](C)([C@@H]4O[C@@H]([C@H]5O[C@@](O)(CO)[C@H](C)C[C@@H]5C)C[C@@H]4C)O3)C[C@H]2C)[C@@H]1C` [nigericin] the “toxicity to the cells” value (KB cells [2]) was “not toxic” and the IC50 (KB cells [3]) was 12 µM.
